Assay results reported in patent publication EP1460077B1, “Novel pyrazolopyrimidones and their use as PDE inhibitors” (The Jordanian Pharmaceutical Manufacturing Co. Ltd., priority 2003, dated 2004).

Assays:
[1] = test system: male rats; assay: Erection episodes and Penile Erection Index (PEI) in male rats within 2 hours (according to EP 1057829 A1); type: in vivo; conditions: 10 rats
Method: (§1) The purpose of the study was to compare the biological activity of the compositions of the present invention with that of sildenafil. In particular, the erection episodes and penile erection indexes of the compounds and compositions in the treatment of male rats and rabbits were determined.
(§2) Details on the determination of PEI values can be found in e.g. H.H. Ang and M.K. Sim, Effects of Eurycoma longifilia Jack on Penile Erection Indes and Homosexual Mounting in Rats, Pharmaceutical Sciences, 3 (1997), 117-19; and A. Benassi-Benelli, F. Ferrari and B. Pellegrini Quaratotti, Penile erection Induced by Apomorphine and N-n-propyl-norapomorphine in Rats, Arch. Int. Pharmacodyn 242 (1979), 241-247. The episode is a description for rat sucking their penus.
(§3) Rabbit experiments where performed according to E. Bischof and K. Schneider, "International Journal of Impotence Research", 13 (2001) 230 - 235, and rat experiments where performed according to EP 1057829 A1.
Further, the effect on penile length of rats was studied and the following results are given in table 2 for a compound disclosed in the invention and in table 3 for sildenafil. The penile length is indicative of the efficacy of the administered medicament.

[2] = test system: rabbits; assay: Penile erection index for rabbits in dependency on time (according to Bischof and Schneider); type: in vivo; parameters: penile erection index: scale not given here
Method: as §1, §2, §3
Studying the penile erection index for rabbits in dependency on time yields the results given in table 1 for sildenafil and the compound (III).

## CCCc1nn(C)c2c(=O)[nH]c(-c3cc(S(=O)(=O)N4CCN(C)CC4)ccc3OCC)nc12 [Sildenafil, sildenafil]
[1]; dose 0.0781 mg/kg
  No. of episodes: 3
  PEI: 90
[1]; dose 0.1562 mg/kg
  No. of episodes: 5
  PEI: 150
[1]; dose 0.3125 mg/kg
  No. of episodes: 7
  PEI: 350
[1]; dose 0.6250 mg/kg
  No. of episodes: 14
  PEI: 980
[2]; comparison of sildenafil, compound III and compositions
  efficacy (penile erection index for rabbits), comparison in words: greater efficacy than compounds III
[2]; time 0 min
  penile erection index: 0
[2]; time 5 min
  penile erection index: 18.318
[2]; time 10 min
  penile erection index: 16.694
[2]; time 15 min
  penile erection index: 15.22
[2]; time 20 min
  penile erection index: 13.108
[2]; time 30 min
  penile erection index: 11.218
[2]; time 40 min
  penile erection index: 7.364
[2]; time 50 min
  penile erection index: 2.94
